Assay results as given in patent publication US9446081B2, “Pharmaceutical composition for preventing and treating complications of diabetes containing a traditional oriental medicine extract or a fraction thereof as an active ingredient” (KOREA INSTITUTE OF ORIENTAL MEDICINE, priority 2011, dated 2016).
≈ marks a conversion by molar mass, not a printed value.

What was measured:
[1] = biological target: T1, aldose reductase from lens of SD rat (Rattus norvegicus, UniProt P07943); experiment: Inhibiting effect on aldose reductase (AR) activity; type: biochemical, Sprague-Dawley rat
T1 construct: natural aldose reductase from the eyeball of SD rat; from tissue; host or cells: Sprague-Dawley rat lens, homogenised; centrifuged and filtered supernatant
Description: Inhibiting effect of the extract of Homonoia riparia Lour. or the fractions (normal-hexane fraction, ethyl acetate fraction, normal-butanol fraction, and water fraction) thereof on aldose reductase activity was investigated in vitro. To obtain natural aldose reductase from the eyeball of SD rat (Sprague-Dawley rat, 250˜280 g) according to the method of Dufrane (1984), 135 mM Na, K-phosphate buffer (pH 7.0), and 10 mM 2-mercaptoethanol were mixed with the extracted lens, which was ground by using a homogenizer and a sonicater. After performing centrifugation at 14,000 rpm for 30 minutes, the supernatant was filtered by using 0.2 μm filter. All the procedures were performed at 4° C. Quantification was performed by Lowry method using BSA as a protein source of the enzyme. The mixture comprising 135 mM Na, K-phosphate buffer (pH 7.0), 100 mM lithium sulfate, 0.03 mM NADPH, 0.04 mM DL-glycealdehyde and 100 μg/ml enzyme mixture was dissolved in 0.1% DMSO, which was distributed to 50 μl of each sample diluted at different concentrations by 50 μl to make the total volume 1 ml, followed by culture for 10 minutes at 37° C. The experimental blank group was added with the mixture excluding 0.04 mM DL-glycealdehyde, and STD was treated with the sample including 135 mM Na, K-phosphate buffer (pH 7.0), 100 mM lithium sulfate, and 50 μl of NADP (0.2˜5 μM). The reaction was terminated by adding 0.3 ml of 0.5 N HCl. 1 ml of 6 M NaOH including 10 mM imidazole was added thereto, followed by reaction at 60° C. for 10 minutes. Then, the conversion of NADP to fluorescent product was measured. The examination was performed in triplicate. The effect was measured by using a spectrofluorophotometric detector (Bio-TEK, Synergy HT, USA) (Ex. 360 nm, Em. 460 nm) and presented as IC50. The extract of Homonoia riparia Lour. was prepared at the concentration of 1 μg/ml, 2.5 μg/ml, or 5 μg/ml. The normal-hexane fraction was prepared at the concentration of 2.5 μg/ml, 5 μg/ml, or 10 μg/ml. The ethyl acetate fraction was prepared at the concentration of 0.5 μg/ml, 1 μg/ml, or 2.5 μg/ml. The normal-butanol fraction was prepared at the concentration of 1 μg/ml, 2.5 μg/ml, or 5.0 μg/ml. The water fraction was prepared at the concentration of 2.5 μg/ml, 5 μg/ml, or 10 μg/ml. As the comparative control group, one of the excellent aldose reductase inhibitors, 3,3-tetramethyleneglutaric acid, was prepared at the concentration of 3.72 μg/ml, 4.66 μg/ml, or 5.59 μg/ml. Then, AR inhibiting effect of each sample was measured.

[2] = system: advanced glycation endproducts production (bovine serum albumin + fructose/glucose); experiment: Inhibiting effect on advanced glycation endproducts production (BSA with fructose/glucose, fluorescence); type: biochemical; conditions: 14 days at 37° C.
Description: Inhibiting effect of the extract of Homonoia riparia Lour. obtained in <Example 1> and each fraction thereof (normal-hexane, ethyl acetate, normal-butanol, or water fraction) obtained in <Example 2> on the advanced glycation endproducts production was investigated in vitro. Bovine serum albumin (BSA, Sigma, USA) was used as a protein source. BSA was added to 50 mM phosphate buffer (pH 7.4) to make the concentration 10 mg/ml. 0.2 M fructose/0.2 M glucose mixed solution was used as a sugar source. The fructose/glucose mixed solution was added to the BSA solution prepared above. The ethanol extract of Homonoia riparia Lour. was prepared at the concentration of 2.5 μg/ml, 5 μg/ml, or 10 μg/ml. The normal-hexane fraction was prepared at the concentration of 10 μg/ml, 25 μg/ml, or 50 μg/ml. The ethyl acetate fraction was prepared at the concentration of 1.25 μg/ml, 2.5 μg/ml, or 5 μg/ml. The normal-butanol fraction was prepared at the concentration of 1.25 μg/ml, 2.5 μg/ml, or 5 μg/ml. The water fraction was prepared at the concentration of 2.5 μg/ml, 5 μg/ml, or 10 μg/ml. All the compounds were dissolved in dimethylsulfoxide (DMSO), to which 15% tween 80 was added. At that time, the final DMSO content was 0.2%. The prepared extract or the fractions thereof were added to the BSA/sugar mixed solution, followed by culture for 14 days at 37° C. At that time, 0.02% sodium azide and antimycotics were added as an anti-bacterial agent and an anti-fungal agent. The BSA/sugar mixed solution was cultured, which was used as the control. The extract or the fractions thereof were used as the blank. In the meantime, aminoguanidine was used as the positive control, which was the index for the effect comparison. Particularly, aminoguanidine was dissolved in distilled water, followed by culture by the same manner as described above at the concentration of 18.5 μg/ml, 37 μg/ml, or 55.5 μg/ml for 14 days. All the culture solutions were prepared 4 of each to minimize error. After 14 days of culture, the amount of the advanced glycation endproducts was measured. The advanced glycation endproducts were fluorescent brown and had physiochemical property suitable for cross-linking, and also had ligands which could be recognized by cell membrane receptors. The amount of the advanced glycation endproducts having the said properties was measured by a microplate reader (Excitation: 350 nm, Emission: 450 nm) to evaluate the inhibiting effect on the advanced glycation endproducts production (Vinson, J. A. et al., J. Nutr. Biochem., 7: 659-663, 1996). Inhibition rate of the advanced glycation endproducts production was calculated by the following mathematical formula 1. […]

[3] = biological target: AGE-BSA cross-linked to collagen (Bos taurus, UniProt P02769); experiment: In vitro AGE cross-linking breaking effect (AGE-BSA on collagen-coated plate, ELISA); type: biochemical; conditions: 4 hours at 37° C.; for AGE-BSA (%) remaining cross-linked: OD of treated well/untreated well x100
Description: 1.0 μg of AGE-BSA was distributed in a collagen-coated 96-well microtitre plate, followed by culture for 4 hours at 37° C. The plate was then washed with PBS containing 0.05% tween three times to eliminate non-conjugated AGE-BSA. Homonoia riparia Lour. The extract of Homonoia riparia Lour. or ALT-711 (4,5-dimethyl-3-(2-oxo-2-phenylethyl)-thiazolium chloride; Alteon Inc., Ramsey, N.J.) known as the AGEs cross-linking breaker was 2-fold diluted serially from the concentration of 1000 μg/ml to 1 μg/ml, which was added to each well (triplicate), followed by culture for 4 hours at 37° C. Upon completion of the culture, each well was washed with PBS containing 0.05% tween three times. To detect the AGE-BSA remaining as cross-linked to collagen, rabbit polyclonal anti-AGE-BSA antibody (MBL international, Woburn, Mass.) diluted at the ratio of 1:250 was distributed in each well, followed by culture for 1 hour at 37° C. One hour later, the plate was washed with PBS containing 0.05% tween three times, to which horseradish peroxidase-linked goat anti-rabbit antibody (Sigma, USA) was applied. Color development was induced by using 3,3′,5,5′-tetramethylbenzidine (TMB) as a substrate and OD450 was measured. Breaking % of AGE-BSA cross-linking was calculated by the following mathematical formula 2. AGE-BSA (%)=OD of sample treated well/OD of sample untreated well×100 [Mathematical Formula 2]

Sequence of AGE-BSA cross-linked to collagen (P02769 25-607): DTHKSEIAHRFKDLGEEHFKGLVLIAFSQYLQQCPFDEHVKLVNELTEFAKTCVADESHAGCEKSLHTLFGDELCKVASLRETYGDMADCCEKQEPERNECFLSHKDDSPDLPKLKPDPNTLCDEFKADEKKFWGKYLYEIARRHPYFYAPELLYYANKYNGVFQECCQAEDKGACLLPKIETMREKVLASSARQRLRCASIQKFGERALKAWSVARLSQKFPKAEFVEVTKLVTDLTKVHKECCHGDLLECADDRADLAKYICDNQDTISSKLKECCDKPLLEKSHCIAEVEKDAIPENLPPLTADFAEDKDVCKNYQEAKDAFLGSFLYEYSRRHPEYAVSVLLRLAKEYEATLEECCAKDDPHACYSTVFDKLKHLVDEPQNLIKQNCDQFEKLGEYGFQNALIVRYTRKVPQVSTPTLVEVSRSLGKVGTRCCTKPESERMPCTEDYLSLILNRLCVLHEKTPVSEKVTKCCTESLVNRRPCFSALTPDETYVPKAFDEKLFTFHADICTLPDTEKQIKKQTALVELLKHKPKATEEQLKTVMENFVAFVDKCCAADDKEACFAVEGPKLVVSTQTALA

O=C(O)CC1(CC(=O)O)CCCC1 [3,3-tetramethyleneglutaric acid]
inhibition at 3.72 µg/mL ([1]; conc. 3.72 μg/ml): 33 ± 4.36% | inhibition at 4.66 µg/mL ([1]; conc. 4.66 μg/ml): 40.3 ± 1.36% | inhibition at 5.59 µg/mL ([1]; conc. 5.59 μg/ml): 51.6 ± 0.78% | IC50 ([1]; rat lens enzyme, read-out: Inhibiting effect (IC50) (μg/ml), aldose reductase (converted)): 29.1 µM

N=C(N)NN [Aminoguanidine]
IC50 (μg/ml) 14th day, advanced glycation endproducts production [2]: 52.96 µg/mL (≈ 715 µM) | Inhibition (%) 14th day ([2]; conc. 18.5 μg/ml): 15.50 ± 1.79% | Inhibition (%) 14th day ([2]; conc. 37 μg/ml): 33.56 ± 0.51% | Inhibition (%) 14th day ([2]; conc. 55.5 μg/ml): 52.81 ± 2.81%

Cc1sc[n+](CC(=O)c2ccccc2)c1C.[Cl-] [ALT-711, 4,5-dimethyl-3-(2-oxo-2-phenylethyl)-thiazolium chloride]
IC50 ([3]; read-out: IC50 (μg/ml), AGE-BSA cross-linking breaking): > 3730 µM | AGE-BSA (%) remaining cross-linked ([3]; conc. 10 μg/ml): 100.18 ± 18.4% | AGE-BSA (%) remaining cross-linked ([3]; conc. 50 μg/ml): 100.13 ± 4.42% | AGE-BSA (%) remaining cross-linked ([3]; conc. 100 μg/ml): 100.21 ± 5.46% | AGE-BSA (%) remaining cross-linked ([3]; conc. 1000 μg/ml): 51.77 ± 9.54%
